Results taken from the NIST ThermoML archive (doi:10.1021/je060339m).

Settings: Liquid

CCCCCOC(C)=O [pentyl ethanoate]
Settings	mass density [kg/m3]
298.15 K, 100 kPa	871.4
298.15 K, 1000 kPa	871.9
298.15 K, 2000 kPa	872.7
298.15 K, 2700 kPa	873.3
298.15 K, 3000 kPa	873.5
298.15 K, 5000 kPa	875.3
298.15 K, 10000 kPa	879.1
298.15 K, 15000 kPa	882.7
298.15 K, 20000 kPa	886.2
298.15 K, 25000 kPa	889.6
298.15 K, 30000 kPa	893.6
298.15 K, 35000 kPa	897.9
303.15 K, 100 kPa	866.5
303.15 K, 1000 kPa	867.1
303.15 K, 2000 kPa	867.9
303.15 K, 2700 kPa	868.5
303.15 K, 3000 kPa	868.7
303.15 K, 5000 kPa	870.5
303.15 K, 10000 kPa	874.4
303.15 K, 15000 kPa	878.1
303.15 K, 20000 kPa	881.6
303.15 K, 25000 kPa	885.1
303.15 K, 30000 kPa	889.4
303.15 K, 35000 kPa	893.8
308.15 K, 100 kPa	861.6
308.15 K, 1000 kPa	862.2
308.15 K, 2000 kPa	863.1
308.15 K, 2700 kPa	863.7
308.15 K, 3000 kPa	863.9
308.15 K, 5000 kPa	865.8
308.15 K, 10000 kPa	869.8
308.15 K, 15000 kPa	873.6
308.15 K, 20000 kPa	877.3
308.15 K, 25000 kPa	880.8
308.15 K, 30000 kPa	885.2
308.15 K, 35000 kPa	889.7
313.15 K, 100 kPa	856.7
313.15 K, 1000 kPa	857.4
313.15 K, 2000 kPa	858.3
313.15 K, 2700 kPa	858.9
313.15 K, 3000 kPa	859.2
313.15 K, 5000 kPa	861
313.15 K, 10000 kPa	865.2
313.15 K, 15000 kPa	869
313.15 K, 20000 kPa	872.8
313.15 K, 25000 kPa	876.4
313.15 K, 30000 kPa	880.9
313.15 K, 35000 kPa	885.5
318.15 K, 100 kPa	851.9
318.15 K, 1000 kPa	852.6
318.15 K, 2000 kPa	853.5
318.15 K, 2700 kPa	854.2
318.15 K, 3000 kPa	854.4
318.15 K, 5000 kPa	856.4
318.15 K, 10000 kPa	860.7
318.15 K, 15000 kPa	864.7
318.15 K, 20000 kPa	868.5
318.15 K, 25000 kPa	872.3
318.15 K, 30000 kPa	876.9
318.15 K, 35000 kPa	881.7
323.15 K, 100 kPa	847.1
323.15 K, 1000 kPa	847.7
323.15 K, 2000 kPa	848.7
323.15 K, 2700 kPa	849.3
323.15 K, 3000 kPa	849.6
323.15 K, 5000 kPa	851.7
323.15 K, 10000 kPa	856.1
323.15 K, 15000 kPa	860.2
323.15 K, 20000 kPa	864.2
323.15 K, 25000 kPa	868.1
323.15 K, 30000 kPa	872.8
323.15 K, 35000 kPa	877.6
328.15 K, 100 kPa	842.3
328.15 K, 1000 kPa	843.2
328.15 K, 2000 kPa	844.4
328.15 K, 2700 kPa	845.2
328.15 K, 3000 kPa	845.5
328.15 K, 5000 kPa	847.1
328.15 K, 10000 kPa	851.6
328.15 K, 15000 kPa	855.9
328.15 K, 20000 kPa	860
328.15 K, 25000 kPa	864.1
328.15 K, 30000 kPa	869
328.15 K, 35000 kPa	874
333.15 K, 100 kPa	837.8
333.15 K, 1000 kPa	838.7
333.15 K, 2000 kPa	839.8
333.15 K, 2700 kPa	840.5
333.15 K, 3000 kPa	840.8
333.15 K, 5000 kPa	842.7
333.15 K, 10000 kPa	847.4
333.15 K, 15000 kPa	851.8
333.15 K, 20000 kPa	856
333.15 K, 25000 kPa	860.1
333.15 K, 30000 kPa	865.1
333.15 K, 35000 kPa	870.2
338.15 K, 100 kPa	832.9
338.15 K, 1000 kPa	834
338.15 K, 2000 kPa	835.1
338.15 K, 2700 kPa	835.8
338.15 K, 3000 kPa	836.1
338.15 K, 5000 kPa	838.1
338.15 K, 10000 kPa	842.9
338.15 K, 15000 kPa	847.5
338.15 K, 20000 kPa	851.9
338.15 K, 25000 kPa	856.2
338.15 K, 30000 kPa	861.3
338.15 K, 35000 kPa	866.5
343.15 K, 100 kPa	828.3
343.15 K, 1000 kPa	829.3
343.15 K, 2000 kPa	830.4
343.15 K, 2700 kPa	831.2
343.15 K, 3000 kPa	831.5
343.15 K, 5000 kPa	833.5
343.15 K, 10000 kPa	838.5
343.15 K, 15000 kPa	843.2
343.15 K, 20000 kPa	847.7
343.15 K, 25000 kPa	852.1
343.15 K, 30000 kPa	857.3
343.15 K, 35000 kPa	862.7
348.15 K, 100 kPa	823.2
348.15 K, 1000 kPa	824.6
348.15 K, 2000 kPa	825.7
348.15 K, 2700 kPa	826.5
348.15 K, 3000 kPa	826.9
348.15 K, 5000 kPa	828.8
348.15 K, 10000 kPa	834
348.15 K, 15000 kPa	838.9
348.15 K, 20000 kPa	843.5
348.15 K, 25000 kPa	847.9
348.15 K, 30000 kPa	853.3
348.15 K, 35000 kPa	858.8
353.15 K, 100 kPa	818.7
353.15 K, 1000 kPa	819.9
353.15 K, 2000 kPa	821.1
353.15 K, 2700 kPa	821.9
353.15 K, 3000 kPa	822.3
353.15 K, 5000 kPa	824.4
353.15 K, 10000 kPa	829.8
353.15 K, 15000 kPa	835
353.15 K, 20000 kPa	839.7
353.15 K, 25000 kPa	844.3
353.15 K, 30000 kPa	849.8
353.15 K, 35000 kPa	855.4
358.15 K, 100 kPa	811.3
358.15 K, 1000 kPa	812.2
358.15 K, 2000 kPa	813.4
358.15 K, 2700 kPa	814.1
358.15 K, 3000 kPa	814.5
358.15 K, 5000 kPa	816.9
358.15 K, 10000 kPa	822.5
358.15 K, 15000 kPa	827.7
358.15 K, 20000 kPa	832.5
358.15 K, 25000 kPa	838
358.15 K, 30000 kPa	843.9
358.15 K, 35000 kPa	849.7
363.15 K, 100 kPa	806.3
363.15 K, 1000 kPa	807.4
363.15 K, 2000 kPa	808.7
363.15 K, 2700 kPa	809.6
363.15 K, 3000 kPa	809.9
363.15 K, 5000 kPa	812.4
363.15 K, 10000 kPa	818.1
363.15 K, 15000 kPa	823.4
363.15 K, 20000 kPa	828.3
363.15 K, 25000 kPa	833.9
363.15 K, 30000 kPa	839.9
363.15 K, 35000 kPa	845.6
368.15 K, 100 kPa	801.2
368.15 K, 1000 kPa	802.3
368.15 K, 2000 kPa	803.7
368.15 K, 2700 kPa	804.6
368.15 K, 3000 kPa	805
368.15 K, 5000 kPa	807.5
368.15 K, 10000 kPa	813.4
368.15 K, 15000 kPa	818.8
368.15 K, 20000 kPa	824
368.15 K, 25000 kPa	829.8
368.15 K, 30000 kPa	835.9
368.15 K, 35000 kPa	841.4
373.15 K, 100 kPa	795.5
373.15 K, 1000 kPa	796.4
373.15 K, 2000 kPa	797.7
373.15 K, 2700 kPa	799.5
373.15 K, 3000 kPa	799
373.15 K, 5000 kPa	802.5
373.15 K, 10000 kPa	808.2
373.15 K, 15000 kPa	813.9
373.15 K, 20000 kPa	819.8
373.15 K, 25000 kPa	826.3
373.15 K, 30000 kPa	831.3
378.15 K, 100 kPa	790.4
378.15 K, 1000 kPa	791.6
378.15 K, 2000 kPa	793.1
378.15 K, 2700 kPa	794
378.15 K, 3000 kPa	794.4
378.15 K, 5000 kPa	797.1
378.15 K, 10000 kPa	803.5
383.15 K, 100 kPa	786.8
383.15 K, 1000 kPa	788.1
383.15 K, 2000 kPa	789.6
383.15 K, 2700 kPa	790.7
383.15 K, 3000 kPa	791.1
383.15 K, 5000 kPa	793.9
383.15 K, 10000 kPa	800.5
383.15 K, 15000 kPa	806.6
383.15 K, 20000 kPa	811.7
383.15 K, 25000 kPa	816.5
383.15 K, 30000 kPa	824
383.15 K, 35000 kPa	830
388.15 K, 100 kPa	781.9
388.15 K, 1000 kPa	783.4
388.15 K, 2000 kPa	785
388.15 K, 2700 kPa	786
388.15 K, 3000 kPa	786.5
388.15 K, 5000 kPa	789.4
388.15 K, 10000 kPa	796.3
388.15 K, 15000 kPa	802.5
388.15 K, 20000 kPa	808.1
388.15 K, 25000 kPa	813.7
388.15 K, 30000 kPa	819.7
388.15 K, 35000 kPa	826.2
393.15 K, 100 kPa	777.2
393.15 K, 1000 kPa	778.7
393.15 K, 2000 kPa	780.3
393.15 K, 2700 kPa	781.4
393.15 K, 3000 kPa	781.9
393.15 K, 5000 kPa	784.9
393.15 K, 10000 kPa	791.9
393.15 K, 15000 kPa	798.4
393.15 K, 20000 kPa	803.9
393.15 K, 25000 kPa	809.7
393.15 K, 30000 kPa	815.7
393.15 K, 35000 kPa	822.2
